Laboratory results from ChEMBL document CHEMBL1201862, “PubChem BioAssay data set” (2004).
Where a name gives a salt, the structure may show the parent alone.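 Each compound was tested at five concentrations against cells in 96-well plates for 48 hours. At the GI50, growth is halved.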 Calls of active or inactive are those of the source. Cut-off read from the data, not from the text of the source: active = GI50 up to about 1.1 µM and inactive = higher. Residues, ends and D or L forms follow the SMILES beside them. *: point of attachment. Boc = CC(C)(C)OC(=O)*

What was measured:
Assay in all cases: NCI-60 cell line screen, 48 h
SF-268 = tested on: SF-268
ACHN = tested on: ACHN
SF-539 = tested on: SF-539
UO-31 = tested on: UO-31
MDA-MB-231 = tested on: MDA-MB-231
HOP-62 = tested on: HOP-62
KM12 = tested on: KM12
NCI/ADR-RES = tested on: NCI/ADR-RES
T47D = tested on: T47D
MOLT-4 = tested on: MOLT-4
NCI-H522 = tested on: NCI-H522
SK-MEL-5 = tested on: SK-MEL-5
SK-MEL-2 = tested on: SK-MEL-2
RPMI-8226 = tested on: RPMI-8226
HOP-92 = tested on: HOP-92
OVCAR-5 = tested on: OVCAR-5

Measured: GI50

COc1ccccc1N1C(=O)/C(=C\c2cc(OC)c(OC)c(OC)c2)S(=O)(=O)C1c1ccccc1 (stereo not given)
inactive: SF-268 44.4 µM | ACHN 41.2 µM | SF-539 25.5 µM | UO-31 36.5 µM | MDA-MB-231 52.6 µM | HOP-62 37.7 µM | KM12 28.6 µM | NCI/ADR-RES 22.2 µM | T47D 29.6 µM | MOLT-4 31.8 µM | NCI-H522 17 µM | SK-MEL-5 26.4 µM | SK-MEL-2 26.9 µM | RPMI-8226 20.5 µM | HOP-92 33.3 µM

O=C1Nc2cccc(C(F)(F)F)c2/C1=N/Nc1ccccc1[N+](=O)[O-]
inactive: SF-268 40.9 µM | ACHN 16.1 µM | UO-31 33.9 µM | MDA-MB-231 28.4 µM | HOP-62 25.1 µM | KM12 5.97 µM | NCI/ADR-RES 30.8 µM | T47D 56.6 µM | MOLT-4 28.6 µM | NCI-H522 22.4 µM | SK-MEL-5 21.4 µM | OVCAR-5 86.5 µM | SK-MEL-2 > 100 µM | RPMI-8226 11.4 µM

CC(=O)/N=C1/N(/C=C2\C(=O)Oc3ccccc3C2=O)C(=O)/C(=C/c2ccccc2Cl)N1C
inactive: SF-268 73.8 µM | ACHN > 100 µM | SF-539 > 100 µM | MDA-MB-231 > 100 µM | HOP-62 > 100 µM | KM12 > 100 µM | NCI/ADR-RES 84.9 µM | T47D > 100 µM | MOLT-4 > 100 µM | NCI-H522 > 100 µM | SK-MEL-5 48 µM | OVCAR-5 > 100 µM | SK-MEL-2 > 100 µM | RPMI-8226 > 100 µM

COc1cc2c(cc1NC(=O)c1ccccc1)c1c(n2S(=O)(=O)c2ccccc2)CCN(S(=O)(=O)c2ccccc2)C1
inactive: SF-268 > 100 µM | ACHN > 100 µM | HOP-62 > 100 µM | KM12 > 100 µM | NCI/ADR-RES > 100 µM | T47D 22.1 µM | MOLT-4 > 100 µM | SK-MEL-5 > 100 µM | OVCAR-5 > 100 µM | SK-MEL-2 > 100 µM | RPMI-8226 > 100 µM | HOP-92 > 100 µM

COc1cc2c[n+](C)c3c4cc(OC)c(OC)cc4c(OC)cc3c2cc1OC
active: SF-268 0.0689 µM | MDA-MB-231 0.53 µM | NCI-H522 0.0359 µM
inactive: ACHN > 100 µM | SF-539 1.87 µM | UO-31 > 100 µM | HOP-62 16.4 µM | KM12 5.27 µM | NCI/ADR-RES > 100 µM | T47D 1.85 µM | SK-MEL-5 2.77 µM | OVCAR-5 > 100 µM | SK-MEL-2 15.8 µM | RPMI-8226 16.4 µM

COC(=O)C(Cc1c[nH]c2ccccc12)NC(=O)C(Cc1c[nH]c2ccccc12)NC(=O)C(Cc1c[nH]c2ccccc12)NC(=O)C(Cc1c[nH]c2ccccc12)NC(=O)OC(C)(C)C (stereo not given) (Boc-WWWW-OMe; configuration not given here)
inactive: SF-268 28.2 µM | ACHN 57.5 µM | UO-31 89.7 µM | MDA-MB-231 > 100 µM | HOP-62 25.6 µM | T47D 19.7 µM | MOLT-4 3.85 µM | NCI-H522 25.4 µM | SK-MEL-5 34.5 µM | OVCAR-5 > 100 µM | RPMI-8226 3.95 µM

CC1(C)C2CCC(N)(C2)C1N (stereo not given)
inactive: ACHN > 100 µM | UO-31 > 100 µM | HOP-62 > 100 µM | KM12 > 100 µM | NCI/ADR-RES > 100 µM | T47D > 100 µM | MOLT-4 > 100 µM | SK-MEL-5 > 100 µM | OVCAR-5 > 100 µM | SK-MEL-2 > 100 µM | RPMI-8226 > 100 µM | HOP-92 21.1 µM

O=C(CN1C(=O)c2ccccc2C1=O)OCC1CCCN2CCCCC12 (stereo not given)
inactive: SF-268 > 100 µM | ACHN > 100 µM | SF-539 > 100 µM | UO-31 > 100 µM | MDA-MB-231 > 100 µM | KM12 > 100 µM | NCI/ADR-RES > 100 µM | T47D > 100 µM | MOLT-4 > 100 µM | SK-MEL-5 > 100 µM | SK-MEL-2 > 100 µM | RPMI-8226 > 100 µM | HOP-92 > 100 µM

O=c1cc(NCC2CCCCC2)[nH]c(=O)[nH]1
inactive: SF-268 > 100 µM | ACHN > 100 µM | SF-539 > 100 µM | UO-31 > 100 µM | MDA-MB-231 > 100 µM | HOP-62 > 100 µM | KM12 > 100 µM | NCI/ADR-RES > 100 µM | SK-MEL-5 > 100 µM | OVCAR-5 > 100 µM | RPMI-8226 > 100 µM | HOP-92 95.1 µM

COc1ccc(C(=O)/C=C2\Nc3cccnc3N\C2=C/C(=O)c2ccc(OC)cc2)cc1
inactive: SF-268 7.8 µM | ACHN 17.7 µM | SF-539 12.5 µM | UO-31 27.4 µM | MDA-MB-231 13.5 µM | HOP-62 4.94 µM | KM12 23.4 µM | NCI/ADR-RES 17.4 µM | T47D 11.5 µM | MOLT-4 27.9 µM | SK-MEL-5 25.1 µM | OVCAR-5 42.3 µM | SK-MEL-2 23.7 µM | RPMI-8226 42.2 µM | HOP-92 53.1 µM

CN(C)CCCc1cccnc1
inactive: SF-268 > 100 µM | ACHN > 100 µM | UO-31 > 100 µM | MDA-MB-231 > 100 µM | HOP-62 > 100 µM | KM12 > 100 µM | NCI/ADR-RES > 100 µM | T47D > 100 µM | NCI-H522 > 100 µM | SK-MEL-5 > 100 µM | OVCAR-5 > 100 µM | SK-MEL-2 > 100 µM | RPMI-8226 > 100 µM | HOP-92 > 100 µM

COC(=O)c1c(O)ccc2c1c1c(n2CCc2ccccc2)C(=O)c2ccccc2C1
inactive: SF-268 13.7 µM | SF-539 24.8 µM | UO-31 20.7 µM | MDA-MB-231 19.5 µM | HOP-62 21.2 µM | KM12 31.8 µM | NCI/ADR-RES 19.7 µM | MOLT-4 38.3 µM | SK-MEL-5 17.6 µM | SK-MEL-2 15.8 µM | RPMI-8226 11.7 µM | HOP-92 10.9 µM

c1ccc2c(c1)ccc1nc3ccccn3c12
inactive: SF-268 > 100 µM | ACHN > 100 µM | SF-539 > 100 µM | UO-31 70.6 µM | HOP-62 > 100 µM | KM12 > 100 µM | NCI/ADR-RES > 100 µM | T47D > 100 µM | MOLT-4 > 100 µM | SK-MEL-5 89.7 µM | OVCAR-5 > 100 µM | RPMI-8226 > 100 µM | HOP-92 > 100 µM

Cc1ccc(N(Cc2ccccc2)Cc2ccccc2)cc1
inactive: SF-268 50.1 µM | ACHN > 100 µM | SF-539 > 100 µM | UO-31 48.4 µM | MDA-MB-231 > 100 µM | HOP-62 26.7 µM | KM12 29.5 µM | NCI/ADR-RES > 100 µM | T47D 30.9 µM | MOLT-4 23.8 µM | NCI-H522 22 µM | SK-MEL-5 32.1 µM | OVCAR-5 > 100 µM | SK-MEL-2 24.3 µM | RPMI-8226 18.5 µM

NCCCCN [PUTRESCINE HYDROCHLORIDE]
inactive: SF-268 > 100 µM | ACHN > 100 µM | SF-539 > 100 µM | UO-31 > 100 µM | MDA-MB-231 > 100 µM | HOP-62 > 100 µM | KM12 16.3 µM | NCI/ADR-RES > 100 µM | T47D > 100 µM | MOLT-4 > 100 µM | NCI-H522 > 100 µM | SK-MEL-5 > 100 µM | OVCAR-5 > 100 µM | SK-MEL-2 > 100 µM | HOP-92 > 100 µM

COC(=O)/C=C/c1cnc2c(c1)oc(=O)n2C
inactive: SF-268 > 100 µM | ACHN > 100 µM | SF-539 > 100 µM | UO-31 > 100 µM | MDA-MB-231 > 100 µM | HOP-62 > 100 µM | KM12 > 100 µM | NCI/ADR-RES > 100 µM | T47D > 100 µM | MOLT-4 > 100 µM | SK-MEL-5 > 100 µM | OVCAR-5 > 100 µM | SK-MEL-2 > 100 µM | RPMI-8226 > 100 µM | HOP-92 > 100 µM

O=C1Nc2cc(Cl)ccc2C(=O)N2CCC[C@@H]12
inactive: SF-268 > 100 µM | ACHN > 100 µM | UO-31 > 100 µM | MDA-MB-231 > 100 µM | HOP-62 > 100 µM | KM12 > 100 µM | NCI/ADR-RES > 100 µM | T47D > 100 µM | NCI-H522 24.9 µM | SK-MEL-5 > 100 µM | OVCAR-5 > 100 µM | SK-MEL-2 > 100 µM | RPMI-8226 > 100 µM | HOP-92 > 100 µM

C=CCOC1=C(OC(C)=O)C(=O)OC1C1COC(C)(C)O1 (stereo not given)
inactive: SF-268 48.4 µM | ACHN 21.6 µM | SF-539 37.1 µM | UO-31 28.1 µM | MDA-MB-231 38.4 µM | HOP-62 29.4 µM | KM12 34.2 µM | NCI/ADR-RES > 61.5 µM | T47D 23.4 µM | MOLT-4 18.4 µM | NCI-H522 17.5 µM | SK-MEL-5 44.6 µM | OVCAR-5 60 µM | SK-MEL-2 > 52.6 µM | RPMI-8226 31.8 µM

CNC(=O)OCc1cnc([N+](=O)[O-])n1C
inactive: SF-268 > 100 µM | ACHN > 100 µM | SF-539 > 100 µM | UO-31 > 100 µM | MDA-MB-231 > 100 µM | HOP-62 > 100 µM | KM12 > 100 µM | NCI/ADR-RES > 100 µM | MOLT-4 > 100 µM | NCI-H522 > 100 µM | SK-MEL-5 > 100 µM | OVCAR-5 > 100 µM | SK-MEL-2 > 100 µM | RPMI-8226 > 100 µM | HOP-92 > 100 µM
